The source of these data is ChEMBL document CHEMBL1201862, “PubChem BioAssay data set” (2004).

Test systems include KM12; SF-295; NCI/ADR-RES; U-251; M14; ACHN; SNB-75; RXF 393; HCT-15; A498; HOP-92; UACC-257; NCI-H226; SK-MEL-2; EKVX; SF-539; SK-OV-3; IGROV-1; Malme-3M; RPMI-8226.
What all share (assay): NCI tumour cell line growth inhibition, 48 h

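Step 1: Grow cells in 96-well plates. Step 2: Expose to compound for 48 hours at 5 concentrations. Step 3: Interpolate endpoints linearly; if unreached, use highest concentration. GI50: concentration for 50% inhibition of growth.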 Active and inactive are the calls of the source. Cut-off read from the data, not from the text of the source: active = GI50 up to about 1.1 µM and inactive = higher.

In the case of `Cc1ccc(S(=O)(=O)N2CCCN(S(=O)(=O)c3ccc(C)cc3)CC2)cc1`, the GI50 in the assay on KM12, with SF-295, in the assay on NCI/ADR-RES, in the assay on U-251, in the assay with M14 and in the assay on ACHN was > 100 µM (inactive) each time. The GI50 with SNB-75 is > 100 µM (inactive); with RXF 393, > 100 µM (inactive); with HCT-15 it was above 100 µM; with A498, 2.75 µM (inactive); in the assay with HOP-92, > 100 µM (inactive); in the assay with UACC-257, > 100 µM (inactive). Moreover, the GI50 in the assay on NCI-H226 was > 100 µM (inactive).

In the case of `COC(=O)C1C(C(=O)OC)N(Cc2ccccc2)C(=O)N1Cc1ccccc1` (stereo unspecified), the GI50 in the assay on KM12 was > 100 µM (inactive); in the assay with SF-295, 39.1 µM (inactive); with SK-MEL-2, > 100 µM (inactive); in the assay with NCI/ADR-RES, > 100 µM (inactive); with U-251 it was > 100 µM (inactive); with M14 it was > 100 µM (inactive). In addition, the GI50 is > 100 µM (inactive) in the assay with ACHN; > 100 µM (inactive) in the assay on SNB-75; > 100 µM (inactive) in the assay with RXF 393; > 100 µM (inactive) with EKVX; > 100 µM (inactive) with HOP-92; 76 µM (inactive) with UACC-257. In addition, the GI50 in the assay with SF-539 is > 100 µM (inactive); with NCI-H226 it was > 100 µM (inactive); with SK-OV-3 it was 53.8 µM (inactive); in the assay on IGROV-1, 85.7 µM (inactive); with Malme-3M it was > 100 µM (inactive); with RPMI-8226, 35 µM (inactive).

Regarding `CC(=O)OC1(C#N)CC2OC1C1C2N=NN1C(=O)OC(C)(C)C` (stereo unspecified), the GI50 with SK-MEL-2 is 23.4 µM (inactive); in the assay on M14, 21 µM (inactive); with ACHN it was > 100 µM (inactive); in the assay on SNB-75, 31.8 µM (inactive); in the assay with RXF 393 it was 40.6 µM (inactive); in the assay with HCT-15, 21.4 µM. For the same compound, the GI50 in the assay with EKVX was 68.2 µM (inactive); in the assay on HOP-92, 27.5 µM (inactive); in the assay with UACC-257 it was 35.4 µM (inactive); in the assay with SF-539, 23.2 µM (inactive); in the assay with IGROV-1 it was 35 µM (inactive); in the assay with Malme-3M, 21.9 µM (inactive). Moreover, in the assay with RPMI-8226, the GI50 was 39.9 µM (inactive).

With `CCC(C(=O)c1ccc(OC)c(OC)c1)N(C(=O)C(F)(F)F)C(C)c1ccccc1` (stereo unspecified), the GI50 in the assay on SF-295 was > 100 µM (inactive); in the assay with NCI/ADR-RES, > 100 µM (inactive); in the assay with U-251 it was > 100 µM (inactive); in the assay on M14 it was > 100 µM (inactive); with ACHN it was > 100 µM (inactive); with HCT-15, above 100 µM. In addition, the GI50 in the assay with EKVX, with UACC-257, in the assay with SK-OV-3, in the assay on IGROV-1, in the assay with Malme-3M and with RPMI-8226 was > 100 µM (inactive) in each case.

As to `Cc1nc2[nH]ncn2c(=O)c1CCCl`, the GI50 in the assay with SK-MEL-2, in the assay on NCI/ADR-RES, with U-251, with M14, in the assay with ACHN and in the assay with SNB-75 was > 10 µM (inactive) throughout. The GI50 is > 10 µM (inactive) in the assay with RXF 393; above 10 µM in the assay with HCT-15; > 10 µM (inactive) in the assay on A498; > 10 µM (inactive) with EKVX; > 10 µM (inactive) in the assay on SF-539; > 10 µM (inactive) in the assay on NCI-H226. The GI50 with SK-OV-3, with IGROV-1, in the assay on Malme-3M and in the assay on RPMI-8226 was > 10 µM (inactive) in each case.

For the compound `COc1ccc(C2COc3c(ccc(O)c3C)C2)cc1OC` (stereo unspecified), the GI50 is 102 µM (inactive) in the assay with KM12; 58.9 µM (inactive) in the assay on SF-295; 69.7 µM (inactive) in the assay with SK-MEL-2; 110 µM (inactive) in the assay with NCI/ADR-RES; 64.6 µM (inactive) in the assay with U-251; 38.1 µM (inactive) in the assay with SNB-75. The GI50 is 24 µM (inactive) in the assay with RXF 393; 57.8 µM in the assay with HCT-15; 11.2 µM (inactive) in the assay on A498; 136 µM (inactive) in the assay on EKVX; 53.5 µM (inactive) in the assay with HOP-92; 149 µM (inactive) with UACC-257. Moreover, the GI50 was 106 µM (inactive) with SF-539; 57.5 µM (inactive) in the assay with NCI-H226; > 187 µM (inactive) in the assay with SK-OV-3; 130 µM (inactive) with IGROV-1; 121 µM (inactive) with Malme-3M; 17.7 µM (inactive) with RPMI-8226.

As for `CC(C)(O)[C@H](CCO)O[Si](c1ccccc1)(c1ccccc1)C(C)(C)C`, the GI50 in the assay with KM12 is 11.6 µM (inactive); in the assay on SF-295 it was 6.35 µM (inactive); in the assay on SK-MEL-2, 15.1 µM (inactive); with U-251, 12.4 µM (inactive); with M14, 12.2 µM (inactive); with ACHN, 5.94 µM (inactive). Moreover, the GI50 was 10.9 µM (inactive) in the assay with SNB-75; 8.22 µM in the assay on HCT-15; 16.5 µM (inactive) in the assay on A498; 14.2 µM (inactive) in the assay with EKVX; 10.8 µM (inactive) with HOP-92; 15.5 µM (inactive) in the assay with UACC-257. For the same compound, the GI50 with SF-539 was 14.3 µM (inactive); with SK-OV-3, 12.1 µM (inactive); in the assay with IGROV-1 it was 12.2 µM (inactive); in the assay on Malme-3M, 17.1 µM (inactive); in the assay with RPMI-8226, 10.4 µM (inactive).

As for `NNc1nnc(-c2ccccc2)nc1Cc1ccccc1`, the GI50 was 8.3 µM (inactive) in the assay with KM12; 6.35 µM (inactive) in the assay with SK-MEL-2; 6.87 µM (inactive) in the assay with U-251; 8.57 µM (inactive) with M14; 4.04 µM (inactive) in the assay with ACHN; 5.53 µM (inactive) in the assay with RXF 393. Further, the GI50 was 4.13 µM with HCT-15; 22.3 µM (inactive) with EKVX; 4.45 µM (inactive) in the assay on SF-539; 2.37 µM (inactive) in the assay with NCI-H226; 14.3 µM (inactive) in the assay with SK-OV-3; 10.9 µM (inactive) with IGROV-1. In addition, the GI50 with Malme-3M is 3.56 µM (inactive).

On to `COc1ccc(/C(Cl)=C(\C=O)c2ccccc2)cc1OC`, for which the GI50 in the assay with SF-295 was 17.3 µM (inactive); in the assay with SK-MEL-2, 19.4 µM (inactive); in the assay with U-251 it was 18 µM (inactive); in the assay on M14, 36.1 µM (inactive); in the assay on ACHN it was 23.3 µM (inactive); in the assay on SNB-75 it was 11.6 µM (inactive). Moreover, the GI50 in the assay on RXF 393 is 14.4 µM (inactive); in the assay with HCT-15 it was 12.7 µM; with EKVX, 3.6 µM (inactive); in the assay on UACC-257, 15.2 µM (inactive); with SF-539, 31.4 µM (inactive); in the assay on NCI-H226, 21 µM (inactive). Moreover, the GI50 in the assay with SK-OV-3 is 70.3 µM (inactive); in the assay with IGROV-1, > 100 µM (inactive); in the assay with Malme-3M, 61 µM (inactive).

Regarding `C=C1C(=O)O[C@@H]2OC3(C)CCC4C(C)CCC1C42OO3` (stereo partly specified), the GI50 in the assay on KM12 was 3.38 µM (inactive); in the assay on SF-295, 3.85 µM (inactive); in the assay with SK-MEL-2, 2.18 µM (inactive); in the assay with NCI/ADR-RES it was 2.42 µM (inactive); in the assay on U-251, 4.85 µM (inactive); in the assay with SNB-75 it was 3.59 µM (inactive). The GI50 is 1.87 µM in the assay with HCT-15; 3.33 µM (inactive) in the assay with A498; 11.4 µM (inactive) in the assay with EKVX; 1.85 µM (inactive) with HOP-92; 3.18 µM (inactive) with UACC-257; 2.48 µM (inactive) with SF-539. Besides, the GI50 in the assay with NCI-H226 was 11.5 µM (inactive); with SK-OV-3 it was 20.3 µM (inactive); in the assay on IGROV-1 it was 3.58 µM (inactive); in the assay with RPMI-8226, 1.42 µM (inactive).

Take `CC(=O)OCC1OC(NC(=O)N(CCCl)N=O)C(OC(C)=O)C(OC(C)=O)C1OC(C)=O` (stereo unspecified): the GI50 in the assay with KM12 was > 100 µM (inactive); with SF-295, 97.1 µM (inactive); in the assay with SK-MEL-2 it was > 100 µM (inactive); in the assay on NCI/ADR-RES it was > 100 µM (inactive); in the assay on U-251 it was 98.4 µM (inactive); with SNB-75, 36.1 µM (inactive). The GI50 with RXF 393 is > 100 µM (inactive); with HCT-15, above 100 µM; in the assay with A498, > 100 µM (inactive); in the assay with EKVX, 54.8 µM (inactive); with HOP-92, > 100 µM (inactive); in the assay with UACC-257 it was > 100 µM (inactive). The GI50 in the assay on SF-539 is > 89.1 µM (inactive); with NCI-H226 it was 3.86 µM (inactive); in the assay with SK-OV-3, > 100 µM (inactive); with IGROV-1, > 100 µM (inactive); in the assay on Malme-3M, > 100 µM (inactive); in the assay on RPMI-8226 it was > 100 µM (inactive).

As for `NC(CCCCCP(=O)(O)O)C(=O)O` (stereo unspecified) [AP-7], the GI50 in the assay with KM12, in the assay on SF-295, in the assay on SK-MEL-2, with NCI/ADR-RES, in the assay with U-251 and in the assay on M14 was > 100 µM (inactive) in each case. In addition, the GI50 in the assay on ACHN is > 100 µM (inactive); with SNB-75, > 100 µM (inactive); in the assay with RXF 393 it was > 100 µM (inactive); in the assay with HCT-15 it was above 100 µM; with EKVX, > 100 µM (inactive); with HOP-92, > 100 µM (inactive). For the same compound, the GI50 with UACC-257, with SF-539, in the assay on SK-OV-3, with IGROV-1 and in the assay with RPMI-8226 was > 100 µM (inactive) throughout.
